Literature values as cited in US9457044B2, “Methods and compositions for wound healing” (CoDa Therapeutics, Inc., priority 2006, dated 2016).

B1: KGF: keratinocyte growth factor (protein, UniProt P21781 32-194, looked up)
Fibroblast growth factor 7: CNDMTPEQMATNVNCSSPERHTRSYDYMEGGDIRVRRLFCRTQWYLRIDKRGKVKGTQEMKNNYNIMEIRTVAVGIVAIKGVESEFYLAMNKEGKLYAKKECNEDCNFKELILENHYNTYASAKWTHNGGEMFVALNQKGIPVRGKKTKKEQKTAHFLPMAIT

Settings: cited from earlier work

Molecule | effective dose when applied topically (U.S. Pat. No. 4,861,757) | concentration effective for wound healing by topical application to epithelial tissue (about 50 μl, Sotozono et al. 1995)
PDGF | ≥ 5 ng/mm^2 | 
B1 |  | about 5 μg/ml
